Experimental findings from patent US5656654A, “Arylidene and heteroarylidene oxindole derivatives and process for their preparation” (Farmitalia Carlo Erba S.r.l., priority 1993, dated 1997) are described below.

Assay [1] deals with T1, p45 v-abl kinase (Abelson murine leukemia virus, UniProt P00521).
T1 construct: by cited methods bacterially expressed (E. coli)
The assay can be described thus: p45 v-abl Kinase Assay ((Val^5)-Angiotensin II phosphorylation, in vitro). Format: biochemical. On the procedure: p45 v-abl kinase purification. The enzyme used in our test was the p45 v-abl tyrosine kinase which represents the catalytic domain of the Abelson tyrosine kinase (isolated from the Abelson murine leukemia virus). The p45 v-abl kinase was produced and isolated as described by Wang et al. in J. Biol. Chem. 260, 64 (1985) and by Ferguson et al. in J. Biol. Chem. 260, 3652 (1985) and in Biochem. J. 257, 321 (1989).
p45 v-abl Kinase Assay. (Val^5)-Angiotensin II phosphorylation was performed by incubation with 40 ng of purified abl-kinase and (γ-^32 P)-ATP, in 50 μl of buffer containing Tris-HCl 25 mM, pH 8.0, MgCl2 10 mM and dithiothreitol 0.1 mM (kinase buffer). The reaction mixture was incubated for the indicated time at 30° C. and the reaction stopped by adding 50 μl of 5% trichloroacetic acid. After a brief incubation on ice, tubes were centrifuged. The supernatants were spotted on phosphocellulose paper squares (Whatman P-81) and washed extensively in acetic acid. The radioactivity bound to dried phosphocellulose squares was measured in a liquid scintillation counter. IC50 values were calculated from triplicate determinations of each experimental point. Each inhibitor was tested at concentrations ranging from […] in the presence of fixed concentrations of peptide (2 mM) and ATP (50 μM).
(§1) The inhibitory activity data for a representative group of compounds according to the present invention, obtained both in the in vitro p45 v-abl kinase assay and in the in vivo human chronic myeloid leukemia K 562 cell growth inhibition assay described above, are set out in following Table 1.

Assay [2] has as its system K562 cells (human chronic myeloid leukemia). Briefly: K562 cell growth inhibition assay ([^3-H]-Thymidine, headed In Vivo ASSAY). Format: cell-based. Particulars: K562 cells in suspension, 66 h, with or without 10% foetal calf serum. On the procedure: K562 cell growth inhibition assay. 1 ml of K562 cells, grown in suspension, were incubated for 66 h with or without 10% foetal calf serum in the presence of 1 μCi of [^3 -H]-Thymidine. Cells were harvested, washed three times in cold PBS and treated with 5% trichloroacetic acid for 5 min on ice. After a wash in ethanol: ether 2:1, the DNA was extracted by 0.5N NaOH for 2 h at room temperature. The extract was counted in a liquid scintillation counter.
as §1

T1 sequence (P00521 whole entry): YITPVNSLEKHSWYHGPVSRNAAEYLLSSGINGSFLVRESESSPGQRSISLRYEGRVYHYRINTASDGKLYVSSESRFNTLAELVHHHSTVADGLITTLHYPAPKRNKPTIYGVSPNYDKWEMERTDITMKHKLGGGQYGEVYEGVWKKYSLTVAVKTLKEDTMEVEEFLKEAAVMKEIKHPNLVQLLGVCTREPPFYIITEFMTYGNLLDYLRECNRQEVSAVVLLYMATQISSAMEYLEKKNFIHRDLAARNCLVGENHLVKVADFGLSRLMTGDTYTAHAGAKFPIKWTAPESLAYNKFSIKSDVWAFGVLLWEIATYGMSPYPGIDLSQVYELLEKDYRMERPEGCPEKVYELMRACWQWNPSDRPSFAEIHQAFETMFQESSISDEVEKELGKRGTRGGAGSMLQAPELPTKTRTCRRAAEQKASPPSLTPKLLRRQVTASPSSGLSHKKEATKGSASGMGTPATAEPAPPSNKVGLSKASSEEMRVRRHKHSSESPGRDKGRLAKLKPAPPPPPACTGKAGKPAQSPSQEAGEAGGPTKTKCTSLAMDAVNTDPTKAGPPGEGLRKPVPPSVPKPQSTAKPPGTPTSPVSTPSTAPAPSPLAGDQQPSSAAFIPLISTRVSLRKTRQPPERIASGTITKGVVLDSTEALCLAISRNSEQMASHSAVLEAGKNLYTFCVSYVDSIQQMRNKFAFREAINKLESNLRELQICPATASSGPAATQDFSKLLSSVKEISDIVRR

A word on the IC50: it is the concentration that gives 50% inhibition. Consider `O=C1Nc2ccc(Br)cc2C1=Cc1ccc(O)c2ncccc12` [FCE 27996, 5-bromo-3-[(8'-hydroxy-5'-quinolyl)methylene]-2-oxindole], for which the IC50 was found to be 2.6 µM in assay [1] and 0.62 µM in assay [2].
Consider `COc1ccc2[nH]cc(C=C3C(=O)Nc4ccccc43)c2c1` [FCE 27564, 3-[(5'-methoxy-3'-indolyl)methylene]-2-oxindole], for which the IC50 in assay [1] worked out at 0.8 µM; in assay [2], 4.15 µM.
The corresponding values for `COc1ccc2[nH]cc(C=C3C(=O)Nc4ccc(N)cc43)c2c1` [FCE 28436, 5-amino-3-[(5'-methoxy-3'-indolyl)methylene]-2-oxindole] are 0.305 µM and 14.5 µM.
On to `Nc1ccc2c(c1)C(=Cc1ccc(O)c3ncccc13)C(=O)N2` [FCE 27518, 5-amino-3-[(8'-hydroxy-5'-quinolyl)methylene]-2-oxindole], for which the figures for the IC50 in assay [1] and in assay [2] were 6.9 µM and 1.2 µM, respectively.
In the same order, the values of `COc1ccc2[nH]cc(C=C3C(=O)Nc4ccc(O)cc43)c2c1` [FCE 28359, 5-hydroxy-3-[(5'-methoxy-3'-indolyl)methylene]-2-oxindole] are 0.39 µM and 8.15 µM.
For the compound `N#Cc1ccc2[nH]cc(C=C3C(=O)Nc4ccccc43)c2c1` [FCE 27565, 3-[(5'-cyano-3'-indolyl)methylene]-2-oxindole], the IC50 in assay [1] stood at 2.4 µM.
With `Nc1ccc2c(c1)C(=Cc1cc(O)c3c(c1O)CCCC3)C(=O)N2` [FCE 28360, 5-amino-3-[(1',4'-dihydroxy-2'-tetralyl)methylene]-2-oxindole], the IC50 in assay [1] was 4.7 µM; in assay [2] it was 6.25 µM.
For the compound `O=C1Nc2ccccc2C1=Cc1c[nH]c2ccc(O)cc12` [FCE 27866, 3-[(5'-hydroxy-3'-indolyl)methylene]-2-oxindole], the IC50 in assay [1] is 5.2 µM; in assay [2] it was 8.75 µM.
In the same order, the values of `Cc1[nH]c2ccccc2c1C=C1C(=O)Nc2ccccc21` [FCE 27566, 3-[(2'-methyl-3'-indolyl)methylene]-2-oxindole] are 15.6 µM and 2.2 µM.
On to `O=C1Nc2ccc(O)cc2C1=Cc1ccc(O)c2c1CCCC2` [FCE 28337, 5-hydroxy-3-[(4'-hydroxy-1'-tetralyl)methylene]-2-oxindole], for which the IC50 was determined as 2.32 µM in assay [1] and 11.5 µM in assay [2].
